Measurements: publication PMC11788587, “Validating Low‐Dose Iohexol as a Marker for Glomerular Filtration Rate by In Vitro and In Vivo Studies” (Clinical and Translational Science, 2025)

What was measured:
hOCT1 = biological target: T1, hOCT1 (Homo sapiens, UniProt O15245); experiment: Inhibition of hOCT1-mediated metformin uptake, stably transfected 293 cells; type: cell-based; conditions: substrate 50 µM metformin, median (95% CI)
T1 construct: expressed in transfected cells; host or cells: HEK-293 (293) cells, pEBTetD plasmid, doxycycline-induced
T1 sequence (O15245 1-554): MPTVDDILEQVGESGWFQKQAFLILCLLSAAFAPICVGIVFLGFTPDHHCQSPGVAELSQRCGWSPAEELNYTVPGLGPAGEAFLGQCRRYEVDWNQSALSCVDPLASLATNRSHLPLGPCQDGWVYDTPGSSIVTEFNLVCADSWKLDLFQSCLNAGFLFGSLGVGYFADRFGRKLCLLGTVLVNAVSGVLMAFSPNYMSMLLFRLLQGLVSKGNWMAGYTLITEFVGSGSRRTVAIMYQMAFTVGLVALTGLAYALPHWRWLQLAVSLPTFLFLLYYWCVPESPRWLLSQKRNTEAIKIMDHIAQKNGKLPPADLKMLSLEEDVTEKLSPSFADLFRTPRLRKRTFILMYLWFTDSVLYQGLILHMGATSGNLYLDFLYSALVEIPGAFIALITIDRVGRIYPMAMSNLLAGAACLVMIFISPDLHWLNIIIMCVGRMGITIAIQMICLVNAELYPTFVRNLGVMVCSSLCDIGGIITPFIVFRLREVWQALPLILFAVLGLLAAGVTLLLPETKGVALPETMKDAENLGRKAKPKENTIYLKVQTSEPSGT
Text: We characterized the inhibitory potential of iohexol on major drug transporters recommended by regulatory agencies, which were previously assessed in a clinical transporter phenotyping cocktail study. These transporters include hOAT1, hOAT3, hOCT1, hOCT2, hMATE1, hMATE2K, human organic anion transporter polypeptides (hOATP)1B1, hOATP1B3, and human multidrug resistance protein (hMDR)1. Additionally, we investigated whether iohexol is a substrate for any of the renal transporters among these, including hOAT1/3, hOCT1/2, and hMATE1/2K. Cell‐based uptake assays were used to assess the activities of hOAT1/3, hOCT1/2, hMATE1/2K, and hOATP1B1/1B3. Inside‐out membrane vesicle uptake assays were used to evaluate the activity of hMDR1.
To determine the maximal inhibitory potential of iohexol, intracellular accumulation of a standard substrate was measured with and without the clinically relevant highest concentrations of iohexol. Control inhibitors were tested in each experiment.
In all subsequent in vitro studies, control experiments were conducted to validate the results. These included positive controls for substrates and inhibitors, as well as cells either without transporter expression or transfected with an empty vector, and control vesicles. Each condition, including cells or vesicles with the transporter and their respective controls, was analyzed in at least three replicates. For detailed information on materials, methods, and data analysis techniques used, refer to the Supporting Information. […]
R version 4.2.1 (R Foundation for Statistical Computing, Vienna, Austria) was used for statistical evaluations and data visualization. The data analysis approach for the in vitro study was detailed by Hsin CH et al..^1 In brief, for transport assays, the initial uptake rate was calculated by normalizing the substrate concentration to both the protein concentration and the incubation time for each dish or well. The transporter-mediated uptake rate (net uptake) was determined by performing an element-wise subtraction of uptake rates from different conditions. […]

[1] = design: method as in PMID 32989831, PMID 30449032; conditions: cited from earlier work

CC(=O)N(CC(O)CO)c1c(I)c(C(=O)NCC(O)CO)c(I)c(C(=O)NCC(O)CO)c1I (stereo not shown) [iohexol]
Inhibitory effect (% reduction of specific activity) (hOCT1; 20 mM iohexol): no notable inhibitory effects
inhibition at 1000 µM (hOCT1; HEK293, 1 mM iohexol, read-out: Inhibitory effect (% reduction of specific activity)): -9.8%
inhibition at 20000 µM (hOCT1; HEK293, 20 mM iohexol, read-out: Inhibitory effect (% reduction of specific activity)): -22%
Iohexol clearance under OCT2 and MATE inhibitors [1]: unaffected
